From the METLIN SMRT retention time set (Domingo-Almenara et al. 2019)

Test: gradient 5% acetonitrile 3 min, to 50% in 2 min, to 85% in 15 min, held 3 min, 100 µL/min
Settings: column: Zorbax Extend-C18 2.1 x 50 mm; eluents: water / acetonitrile, 0.1% formic acid
Method in brief: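 Retention times of pure standards were taken from adduct peaks that were selected by computer and manually inspected. Over 3 months, mixtures of ~100 molecules were run by HPLC–quadrupole time-of-flight mass spectrometry in positive and negative ionization mode. The Zorbax Extend-C18 column (2.1 × 50 mm, 1.8 μm) ran at 100 μL/min in water and acetonitrile, each containing 0.1% formic acid, with 40 μL dead volume and 900 μL dwell volume.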

SMILES	RP-LC retention time
CCn1ccnc1N1CCN(C(=O)c2ccccc2C(F)(F)F)CC1	555 s
O=C(Cc1ccccc1F)N1CCN(c2cc(-c3cccs3)[nH]n2)CC1	794 s
O=C(c1cc(F)ccc1F)N1CCc2nc(-c3ccc(Cl)cc3)ncc2C1	1090 s
CCc1cc(=O)n(CC(=O)NCc2ccccc2)c(N2CCOCC2)n1	647 s
CCOCC(=O)N1C[C@H]2C[C@H](C1)[C@H]1CCCC(=O)N1C2	582 s
CCOc1ccc(CNC(=O)c2c(C)sc3ccn(CC)c(=O)c23)cc1	836 s
COc1cc(OC)cc(-c2nc(NC(=O)C3CCCN(c4cnc5ccccc5n4)C3)n[nH]2)c1 (configuration not stated)	1020 s
CCCCn1c(=O)c2ccccc2n(Cc2nc(-c3ccc(OC)cc3)no2)c1=O	1160 s
N#Cc1cccc(N2C=C(C(=O)N3CCCC3)S(=O)(=O)c3ccccc32)c1	720 s
CC(C)NC(=O)c1ncn2c1C(=O)N(C1CC1)C(C)(C(=O)NCc1ccc(F)cc1)C2 (configuration not stated)	673 s
O=C(NCc1ccccc1C(F)(F)F)C1CCN(c2cncnc2N2CCOCC2)CC1	644 s
CC(=O)N1CCc2cc(N3CC(C(=O)NCc4ccccc4C(F)(F)F)CC3=O)ccc21 (configuration not stated)	748 s
COCCn1cc(C(=O)Nc2ccc(Cl)cc2)c2nn(-c3ccccc3)c(=O)c-2c1	1050 s
c1ccc2c(-c3nc(C4CC4)no3)nnc(NC3CCCC3)c2c1	725 s
CCn1cc(S(=O)(=O)NCc2ccccc2C)c2cccnc21	853 s
CCOc1ccc2nc(Nc3ncc4c(n3)CC(c3ccc(F)cc3)CC4=O)nc(C)c2c1 (configuration not stated)	833 s
CCCCN(CC)CCNC(=O)C1CCN(c2ncnc3onc(C)c23)CC1	598 s
Cc1cccc(CN2CCCn3nc(C(=O)NCCc4ccco4)cc3C2=O)c1	870 s
CCn1c(CCNC(=O)Cc2ccc(Cl)cc2)nc2cccnc21	639 s
CC(=O)C1CC[C@H]2[C@@H]3CC[C@@H]4CC(=O)CC[C@]4(C)[C@H]3CC[C@]12C (some centres not stated)	1050 s
Cc1nn(C(C)C(=O)NCCCOC(C)C)c(=O)c2c(C)n(-c3ccccc3)nc12 (configuration not stated)	823 s
Cc1ccc(CNC(=O)C2(C)CCCN(C(=O)Nc3ccc(C)cc3Cl)C2)cc1 (configuration not stated)	1080 s

SMILES	RP-LC retention time
O=S(=O)(c1cccc2nsnc12)N1CCCC1c1noc(CO)n1 (configuration not stated)	682 s
Cc1ccc(CN2CCN(C3CCN(C(=O)Nc4ccc(C)cc4)CC3)C(=O)C2=O)cc1	768 s
CCn1c(C(=O)N2CCCC(C(=O)NC(C)C34CC5CC(CC(C5)C3)C4)C2)cc2sccc21 (configuration not stated)	1210 s
O=C(COc1cccc2ccc(N3CCOCC3)nc12)Nc1ccc(OC(F)(F)F)cc1	703 s
O=C(NCc1ccc(F)cc1Cl)c1cn2c(n1)CCCC2	607 s
CC(=O)Nc1onc(C)c1-c1ccc(C)c(S(=O)(=O)N2CCN(c3ncccn3)CC2)c1	763 s
COc1cccc(-c2ccnc3nc(-c4ccccc4OC)nn23)c1	860 s
COc1ccc(CNC2=NCCNC23CCN(S(=O)(=O)c2c(C)cc(C)cc2C)CC3)cc1	834 s
Cc1ccc(NS(=O)(=O)c2ccc(-c3c(C)noc3C)cc2)cc1	928 s
O=C(N[C@H]1C[C@@H]2C[C@H]1N(C(=O)c1ccccc1OC(F)(F)F)C2)c1cccnc1	641 s
CCN1C(=O)c2cccnc2Sc2cc(NC(=O)c3ccccc3C(F)(F)F)ccc21	840 s
CCn1c(=O)oc2cc(-c3noc(-c4cc(SC)ccc4Cl)n3)ccc21	1270 s
CCN(CC)CCCNC(=O)C1CCCN(c2nnc(C)c3c(C)n(-c4ccccc4)nc23)C1 (configuration not stated)	556 s
Cc1cc2n(n1)CCC(=O)N2CCCC(=O)NCCCN1CCCC(C)C1 (configuration not stated)	570 s
O=C(COc1ccccc1F)NC1CCCC(OC(=O)Nc2ccccc2)C1 (configuration not stated)	872 s
COc1ccc(-c2noc(CN3C(=O)COc4cc(Cl)ccc43)n2)cc1OC	971 s
CCC(C)CN(CC(=O)N1CCc2sccc2C1COc1ccccc1F)C(=O)COC (configuration not stated)	958 s
COc1ccc(C(=O)Nc2nccnc2C(=O)NCC2CCCCC2)cc1	1120 s
CN1C(=O)c2cc(C(=O)N3CCOCC3)nn2CC1(C)C(=O)NCc1ccc(F)cc1 (configuration not stated)	644 s
COc1ccc(NC(=O)Cn2c(=O)n(-c3ccc(F)cc3)c(=O)c3c2cc(C)n3C)cc1OC	739 s
CCc1nc(NCc2ccccn2)ncc1C(=O)O	557 s
O=C(c1ccc[nH]c1=O)N1CCC(Cn2c(COc3ccccc3)nc3ccccc32)CC1	556 s

SMILES	RP-LC retention time
Cc1cc2nc(NC3=NCN(CC4CCCO4)CN3)nc(C)c2cc1C (configuration not stated)	683 s
CCn1c(C)c(CN2CCC(C(=O)NCc3ccccc3C)CC2)c2ccccc21	742 s
Cc1cc(NC(=O)C2CCCN(c3ncnc4c3nc3n4CCCCC3)C2)no1 (configuration not stated)	751 s
O=C(Nc1cnc(N2CCCCC2)nc1)C1CCCC1	834 s
CC1(C(=O)NC2CCCCCC2)CN(S(C)(=O)=O)CC(=O)N1Cc1ccc(Cl)cc1 (configuration not stated)	946 s
CCn1cc(CCN2CCC(C(=O)N(C)C)CC2)c2cccnc21	566 s
Cc1cc(C(=O)Nc2cnc(N3CCCCC3)nc2)no1	845 s
O=C1CCCc2cc(S(=O)(=O)N3CCC(C(=O)NC4CCCC4)CC3)ccc2N1	761 s
CCn1ccc(C(=O)N2CC(c3nc(C4CC4)no3)C3(CCN(C)CC3)C2)n1 (configuration not stated)	586 s
O=C(NCc1ccc(F)cc1)c1ccc2c(cnn2CC(=O)N2CCCCCC2)c1	951 s
CN(CCNC(=O)c1ccc2c(c1)N(S(C)(=O)=O)CC2)C1CCCCC1	610 s
O=C(CN1CCC2(CC1)N=C(c1ccc(F)cc1)C(=O)N2)Nc1cc(F)ccc1F	692 s
O=C(Nc1cnc(N2CCOCC2)c(C(=O)O)c1)c1ccc(Br)cc1	715 s
O=C(Cn1cnc2c(-c3ccc(F)cc3)csc2c1=O)Nc1ccc(Br)cc1F	1030 s
CC(C)C[C@H]1C(=O)N2CCC[C@H]2[C@]2(O)O[C@](NC(=O)[C@@H]3C=C4c5cccc6[nH]c(Br)c(c56)CC4N(C)C3)(C(C)C)C(=O)N12 (some centres not stated)	830 s
O=C(Nc1nccs1)C1CCN(C(=O)c2cccc(C(F)(F)F)c2)CC1	728 s
O=C(Cc1nnc(-c2cnccn2)o1)Nc1ccc(Cl)cc1Cl	753 s
Cn1nc(C(=O)NCc2cccs2)ccc1=O	632 s
CCCCNC(=O)C1CC(=O)N(c2n[nH]c3cccc(F)c23)C1 (configuration not stated)	660 s
CCCn1cc(C(=O)NC(C)c2ccc(OC)cc2)c2cccnc21 (configuration not stated)	869 s
CCc1nc2cc(-c3noc(-c4cncc(Br)c4)n3)ccc2o1	1160 s
CS(=O)(=O)c1ccc(-c2cnc(N)c(C(=O)Nc3ccccc3)n2)cc1	937 s

SMILES	RP-LC retention time
COc1cc(-c2oc3cc(O)cc(O)c3c(=O)c2OC[C@@H]2OC(O[C@@H]3O[C@@H](C)[C@H](O)[C@@H](O)[C@H]3O)[C@@H](O)[C@H](O)[C@@H]2O)ccc1O (some centres not stated)	638 s
O=C1COc2ccc(Cl)cc2N1Cc1nc(-c2ccc(-c3csc(C4CC4)n3)cc2)no1	1310 s
COc1ccc(Cl)cc1NC(=O)N1CCN(CCn2c(C(C)C)nc3cccnc32)CC1	649 s
Cc1ccc(NC(=O)Nc2nccn(-c3ccc(F)cc3)c2=O)cc1C	1020 s
CC(C)N1CCCn2cc(S(=O)(=O)NC3CCCCCC3)cc2C1=O	817 s
CC(=O)N1CCC2(CC1)OC(=O)C(C)=C2C(=O)NCCCN1CC(C)CC(C)C1 (configuration not stated)	587 s
CCNC(=O)C1CCN(C2=NS(=O)(=O)C(c3ccc(C(C)C)cc3)=C2C)CC1	812 s
Cc1nc(C)c(C(=O)Nc2ccccc2NC(=O)c2ccccn2)s1	691 s
CN1C(=O)C2(CCN(C(=O)Cc3ccc(Cl)cc3)C2)c2ccccc21 (configuration not stated)	872 s
CC1=C(c2ccc(C)c(C)c2)S(=O)(=O)N=C1N1CCCN(C(=O)NCC(C)C)CC1	853 s
CCN1CCCn2cc(S(=O)(=O)N3CCCCCC3)cc2C1=O	747 s
O=C(CCCc1nc2cccnc2n1Cc1ccc(F)cc1)N1CCCC1	707 s
CC(C)c1ccc(CNC(=O)c2ccc3c(c2)nc2n3CCN(C(C)C)C2=O)cc1	823 s
COCCNc1c(-c2ccc(F)cc2)nc2sc(C(=O)N3CCN(C)CC3)c(C)n12	569 s
Cc1cc(C(=O)Nc2ccc3scnc3c2)no1	645 s
O=C(Cc1cccs1)Nc1cccc(OCc2nnc(-c3ccc(Cl)cc3)o2)c1	1010 s
COCCCNC(=O)C1CCN(c2nc3ccc(-c4cccs4)nc3s2)CC1	801 s
c1csc(Cc2nc(-c3ccc4c(c3)ncn4CCN3CCCCC3)no2)c1	646 s
Cc1cc(C)cc(Nc2nc(C)cc3nn(CC(=O)N4CCOCC4)c(=O)n23)c1	601 s
CC(=O)Nc1ccc(CCc2nc3ccc(C(=O)NCc4cccc(Br)c4)cc3[nH]2)cc1	669 s
O=C1NCC2(CCN(CCc3ccccc3)CC2)O1	579 s
